# Tests used:
# [1] = tested on: IL2Ralpha (CD25) mRNA in Karpas-299 cells; assay: CD25 mRNA expression by TaqMan qRT-PCR (Example 9); assay type: cell-based; conditions: Karpas299 cells; 30 nM Cytarabine; over the 72 hour period
# Protocol: (§1) Karpas-299, EOL-1 or KG-1 cells were incubated with 30 nM Cytarabine for 24 hours before mRNA was isolated and reverse-transcribed. cDNA was probed for IL2Ralpha (CD25) by TagMan qRT-PCR. Mean fold change in expression compared to the untreated control was calculated using the ddCT method using the reference gene abl-1. A time-course to measure expression change over 3-4 days was also done in Karpas-299 (high CD25 expressing) and KG-1 cells (low CD25 expressing) under the same conditions, only extending incubation time with Cytarabine.
# [2] = tested on: IL2Ralpha (CD25) mRNA in KG-1 cells; assay: CD25 mRNA expression by TaqMan qRT-PCR (Example 9); assay type: cell-based; conditions: 30 nM Cytarabine
# Protocol: as §1
# [3] = tested on: surface CD25 on KG-1 cells; assay: Surface CD25 by flow cytometry (FACS) after Cytarabine (Example 5); assay type: cell-based; conditions: CD25(+) KG-1 cells (low CD25) incubated with Cytarabine
# Protocol: (§2) After incubation, two parameters were measured: the amount of surface CD25 (as determined by flow cytometry) and the in vitro cytotoxicity of the combinations (as determined by CellTiter-Glo® or MTS assays). Cytotoxic synergy was calculated by transforming the cell viability data into fraction affected, and calculating the combination index (Table 1) using the CalcuSyn analysis program.
# [4] = tested on: surface CD25 on Karpas299 cell line; assay: as above; assay type: cell-based; conditions: Karpas299 cell line (high in CD25) incubated with Cytarabine
# Protocol: as §2
# [5] = tested on: CD25 surface protein on KG-1 cells; assay: CD25 surface protein, antibodies bound per cell, QuantiBRITE-PE flow cytometry (Example 9); assay type: cell-based, human
# Description: (§3) Cells were then washed and run on a Fortessa X20 flow cytometer.
# [6] = tested on: CD25 surface protein on Karpas-299 cells; assay: as above; assay type: cell-based, human
# Description: as §3
# [7] = tested on: surface CD25 on Karpas299 cell line; assay: Surface CD25 by flow cytometry after decitabine (Example 6); assay type: cell-based; set-up: dose or concentration left out as unconfirmed; conditions: in the presence of decitabine
# Protocol: After incubation, two parameters were measured: the amount of surface CD25 (as determined by flow cytometry) and the in vitro cytotoxicity of the combinations (as determined by MTS assays).
# advanced melanoma = conditions: phase III; compared to the standard of care (temozolomide or dacarbazine); cited from earlier work
compound,measurement,setting,value
"Nc1ccn([C@@H]2O[C@H](CO)C(O)[C@@H]2O)c(=O)n1 (stereo in doubt) [Cytarabine, 4-amino-1-[(2R,3S,4R,5R)-3,4-dihydroxy-5-(hydroxymethyl)oxolan-2-yl] pyrimidin-2-one]",Effect on CD25 mRNA expression,[1],little effect
same,Increase in CD25 mRNA expression vs untreated control,[2]; after 24 hours incubation,2 fold
same,Increase in CD25 mRNA expression vs untreated control,[2]; after 48 hours incubation,4 fold
same,Increase in CD25 mRNA expression vs untreated control,[2]; after 96 hours incubation,3 fold
same,Change in surface CD25 levels (FACS analysis),[3],two-fold increase
same,Change in surface CD25,[4],No increase
same,Mean number of CD25 antibodies bound per cell,[5]; KG-1 cells treated with 30 nM Cytarabine 24 hours (untreated ~200),~400 antibodies per cell
same,Levels of CD25 surface expression,"[5]; KG-1 cells, 30 nM Cytarabine, 24 hours",significantly increased
same,Mean number of CD25 antibodies bound per cell,[6]; Karpas299 cells treated with 30 nM Cytarabine 24 hours (untreated the same),~60000 antibodies per cell
same,Effect on CD25 surface protein expression,"[6]; Karpas299 cells, 30 nM Cytarabine, 24 hour period",little effect
"Nc1ncn([C@H]2C[C@H](O)[C@@H](CO)O2)c(=O)n1 [Decitabine, 4-Amino-1-(2-deoxy-β-D-erythro-pentofuranosyl)-1,3,5-triazin-2(1H)-one]",Amount of CD25 on the cells,[7],no difference
tremelimumab: anti-CTLA4 antibody,Overall survival of patients,advanced melanoma,did not significantly increase the overall survival

# Source: US11596696B2, “Combination therapy with an anti-CD25 antibody-drug conjugate” (ADC Therapeutics SA, priority 2017, dated 2023)
